Legend:
Assay type in all cases: in vivo
[1] = tested on: Amaranthus retroflexus; assay: Post-emergence herbicidal action in greenhouse against AMARE; conditions: post-emergence spray, 600 l/ha water, visual rating after ca. 3 weeks vs untreated controls, 100% = plants dead, 0% = like control plants
Source text: (§1) Biologische Beispiele: • Die folgenden Abkürzungen werden für die in den folgenden Tabellen aufgeführten Kultur- und Schadpflanzen verwendet: ABUTH: Abutilon theophrasti ALOMY: Alopecurus myosuroides AMARE: Amaranthus retroflexus BRSNS: Brassica napus DIGSA: Digitaria sanguinalis ECHCG: Echinochloa crus-galli GLXMA: Glycine max KCHSC: Kochia scoparia LOLRI: Lolium rigidum MATIN: Matricaria inodora ORYZA: Oryza sativa PHPBU: Pharbitis purpurea POLCO: Polygonum convolvulus SETVI: Setaria viridis VERPE: Veronica persica VIOTR: Viola tricolor TRZAS: Triticum aestivum ZEAMX: Zea mays • A. Herbizide Wirkung im Nachauflauf
(§2) Samen von mono- bzw. dikotylen Unkrautpflanzen wurden in Kunststoff- oder Holzfasertöpfen in sandigem Lehmboden ausgelegt, mit Erde abgedeckt und im Gewächshaus unter kontrollierten Wachstumsbedingungen angezogen. 2 bis 3 Wochen nach der Aussaat wurden die Versuchspflanzen im Einblattstadium behandelt. Die in Form von benetzbaren Pulvern (WP) oder als Emulsionskonzentrate (EC) formulierten erfindungsgemäßen Verbindungen wurden dann als wässrige Suspension bzw. Emulsion unter Zusatz von 0,5% Additiv mit einer Wasseraufwandmenge von umgerechnet 600 l/ha auf die grünen Pflanzenteile gesprüht. Nach ca. 3 Wochen Standzeit der Versuchspflanzen im Gewächshaus, unter optimalen Wachstumsbedingungen, wurde die Wirkung der Präparate visuell im Vergleich zu unbehandelten Kontrollen bonitiert. Beispielsweise bedeutet 100% Wirkung = Pflanzen sind abgestorben, 0% Wirkung = wie Kontrollpflanzen.
(§3) In den nachstehenden Tabellen A1 bis A11 sind die Wirkungen ausgewählter Verbindungen der allgemeinen Formel (I) gemäß der Tabelle 1 auf verschiedene Schadpflanzen und einer Aufwandmenge entsprechend 20 g/ha und niedriger, die gemäß zuvor genannter Versuchsvorschrift erhalten wurden, dargestellt. Tabelle A1a: Nachauflaufwirkung bei 1,25 g/ha gegen ABUTH in %

[2] = tested on: Pharbitis purpurea; assay: Post-emergence herbicidal action in greenhouse against PHBPU; conditions: visual rating after ca. 3 weeks
Source text: as §1, §2, §3

[3] = tested on: Digitaria sanguinalis; assay: Post-emergence herbicidal action in greenhouse against DIGSA; conditions: visual rating after ca. 3 weeks
Source text: as §1, §2, §3

[4] = tested on: Matricaria inodora; assay: Post-emergence herbicidal action in greenhouse against MATIN; conditions: visual rating after ca. 3 weeks
Source text: as §1, §2, §3

[5] = tested on: Zea mays; assay: Post-emergence action on crop plants in greenhouse, ZEAMX; conditions: 1,25 g/ha, crop plant, post-emergence, visual rating after ca. 3 weeks; 100% = plants dead, 0% = like control plants
Source text: as §1
as §2, with “Kulturpflanzen” for “Unkrautpflanzen”
(§4) In den nachstehenden Tabellen B1 bis B4 sind die Wirkungen ausgewählter Verbindungen der allgemeinen Formel (I) gemäß der Tabelle 1 auf verschiedene Kulturpflanzen und einer Aufwandmenge entsprechend 20 g/ha und niedriger, die gemäß zuvor genannter Versuchsvorschrift erhalten wurden, dargestellt. Tabelle B1a: Nachauflaufwirkung bei 1,25 g/ha gegen ZEAMX in %

[6] = tested on: Veronica persica; assay: Post-emergence herbicidal action in greenhouse against VERPE; conditions: visual rating after ca. 3 weeks
Source text: as §1, §2, §3

[7] = tested on: Abutilon theophrasti; assay: Post-emergence herbicidal action in greenhouse against ABUTH; conditions: post-emergence spray, 600 l/ha water, visual rating after ca. 3 weeks vs untreated controls, 100% = plants dead, 0% = like control plants
Source text: as §1, §2, §3

[8] = tested on: Polygonum convolvulus; assay: Post-emergence herbicidal action in greenhouse against POLCO; conditions: visual rating after ca. 3 weeks
Source text: as §1, §2, §3

[9] = tested on: Lolium rigidum; assay: Post-emergence herbicidal action in greenhouse against LOLRI; conditions: 20 g/ha; post-emergence spray, 600 l/ha water; visual rating after ca. 3 weeks vs untreated controls; 100% = plants dead, 0% = like control plants
Source text: as §1, §2, §3

[10] = tested on: Oryza sativa; assay: Post-emergence action on crop plants in greenhouse, ORYZA; conditions: crop plant, visual rating after ca. 3 weeks, 100% = plants dead, 0% = like control plants
Source text: as §1
as §2, with “Kulturpflanzen” for “Unkrautpflanzen”
as §4

[11] = tested on: Alopecurus myosuroides; assay: Post-emergence herbicidal action in greenhouse against ALOMY; conditions: 20 g/ha; post-emergence spray, 600 l/ha water; visual rating after ca. 3 weeks vs untreated controls; 100% = plants dead, 0% = like control plants
Source text: as §1, §2, §3

[12] = tested on: Triticum aestivum; assay: Post-emergence action on crop plants in greenhouse, TRZAS; conditions: crop plant, visual rating after ca. 3 weeks, 100% = plants dead, 0% = like control plants
Source text: as §1
as §2, with “Kulturpflanzen” for “Unkrautpflanzen”
as §4

[13] = tested on: Viola tricolor; assay: Post-emergence herbicidal action in greenhouse against VIOTR; conditions: visual rating after ca. 3 weeks
Source text: as §1, §2, §3

[14] = tested on: Setaria viridis; assay: Post-emergence herbicidal action in greenhouse against SETVI; conditions: visual rating after ca. 3 weeks
Source text: as §1, §2, §3

[15] = tested on: Brassica napus; assay: Post-emergence action on crop plants in greenhouse, BRSNS; conditions: crop plant; 1,25 g/ha; post-emergence spray, 600 l/ha water; visual rating after ca. 3 weeks vs untreated controls; 100% = plants dead, 0% = like control plants
Source text: as §1
Samen von mono- bzw. dikotylen Kulturpflanzen wurden in Kunststoff- oder Holzfasertöpfen in sandigem Lehmboden ausgelegt, mit Erde abgedeckt und im Gewächshaus unter kontrollierten Wachstumsbedingungen angezogen. 2 bis 3 Wochen nach der Aussaat wurden die Versuchspflanzen im Einblattstadium behandelt. Die in Form von benetzbaren Pulvern (WP) oder als Emulsionskonzentrate (EC) formulierten erfindungsgemäßen Verbindungen wurden dann als wässrige Suspension bzw. Emulsion unter Zusatz von 0,5% Additiv mit einer Wasseraufwandmenge von umgerechnet 600 l/ha auf die grünen Pflanzenteile gesprüht. […]

SMILES | Nachauflaufwirkung gegen AMARE ([1]; 1,25 g/ha) | Nachauflaufwirkung gegen AMARE ([1]; 5 g/ha) | Nachauflaufwirkung gegen AMARE ([1]; 20 g/ha) | Nachauflaufwirkung gegen PHBPU ([2]; 1,25 g/ha) | Nachauflaufwirkung gegen PHBPU ([2]; 5 g/ha) | Nachauflaufwirkung gegen PHBPU ([2]; 20 g/ha) | Nachauflaufwirkung gegen DIGSA ([3]; 5 g/ha) | Nachauflaufwirkung gegen DIGSA ([3]; 20 g/ha) | Nachauflaufwirkung gegen MATIN ([4]; 20 g/ha) | Nachauflaufwirkung gegen ZEAMX [5] | Nachauflaufwirkung gegen VERPE ([6]; 20 g/ha) | Nachauflaufwirkung gegen POLCO ([8]; 20 g/ha) | Nachauflaufwirkung gegen ORYZA ([10]; 1,25 g/ha) | Nachauflaufwirkung gegen TRZAS ([12]; 1,25 g/ha) | Nachauflaufwirkung gegen TRZAS ([12]; 5 g/ha) | Nachauflaufwirkung gegen VIOTR ([13]; 5 g/ha) | Nachauflaufwirkung gegen VIOTR ([13]; 20 g/ha) | Nachauflaufwirkung gegen SETVI ([14]; 1,25 g/ha) | Nachauflaufwirkung gegen SETVI ([14]; 5 g/ha) | Nachauflaufwirkung gegen SETVI ([14]; 20 g/ha) | further results
CC(C)(OC(=O)c1cc(-n2c(=O)cc(C(F)(F)F)n(N)c2=O)c(F)cc1Cl)C(=O)OCc1ccccn1 [I.1-286] | 100% | 100% | 100% | 100% | 100% | 100% | 100% | 100% | 100% | 20% | 100% | 100% | 0% | 0% | 10% | 100% | 100% | 100% | 100% | 100% | Nachauflaufwirkung gegen MATIN ([4]; 5 g/ha): 90%; Nachauflaufwirkung gegen VERPE ([6]; 1,25 g/ha): 100%; Nachauflaufwirkung gegen VERPE ([6]; 5 g/ha): 100%; Nachauflaufwirkung gegen ABUTH ([7]; 1,25 g/ha): 90%; Nachauflaufwirkung gegen ABUTH ([7]; 5 g/ha): 100%; Nachauflaufwirkung gegen ABUTH ([7]; 20 g/ha): 100%; Nachauflaufwirkung gegen POLCO ([8]; 5 g/ha): 100%; Nachauflaufwirkung gegen LOLRI [9]: 90%; Nachauflaufwirkung gegen ALOMY [11]: 90%; Nachauflaufwirkung gegen VIOTR ([13]; 1,25 g/ha): 90%
CC(C)=NOC(=O)C(C)(C)OC(=O)c1cc(-n2c(=O)cc(C(F)(F)F)n(N)c2=O)c(F)cc1Cl [I.1-491] | 100% | 100% | 100% | 100% | 100% | 100% | 100% | 100% | 100% | 20% | 100% | 100% | 0% | 0% | 0% | 100% | 100% | 100% | 100% | 100% | Nachauflaufwirkung gegen MATIN ([4]; 5 g/ha): 100%; Nachauflaufwirkung gegen VERPE ([6]; 5 g/ha): 100%; Nachauflaufwirkung gegen ABUTH ([7]; 1,25 g/ha): 100%; Nachauflaufwirkung gegen ABUTH ([7]; 5 g/ha): 100%; Nachauflaufwirkung gegen ABUTH ([7]; 20 g/ha): 100%; Nachauflaufwirkung gegen LOLRI [9]: 80%; Nachauflaufwirkung gegen ALOMY [11]: 100%; Nachauflaufwirkung gegen VIOTR ([13]; 1,25 g/ha): 80%
CC(C)(OC(=O)c1cc(-n2c(=O)cc(C(F)(F)F)n(N)c2=O)ccc1Cl)C(=O)O [I.2-481, 2-({5-[3-Amino-2,6-dioxo-4-(trifluormethyl)-3,6-dihydropyrimidin-1(2H)-yl]-2-chlorbenzoyl}oxy)-2-methylpropansäure] | 90% | 100% | 100% |  | 100% | 100% |  | 100% | 100% | 20% | 100% | 100% | 0% | 0% | 0% | 80% | 100% | 80% | 90% | 100% | Nachauflaufwirkung gegen BRSNS [15]: 0%; Nachauflaufwirkung gegen POLCO ([8]; 5 g/ha): 100%; Nachauflaufwirkung gegen ORYZA ([10]; 5 g/ha): 0%; Nachauflaufwirkung gegen ORYZA ([10]; 20 g/ha): 0%; Nachauflaufwirkung gegen TRZAS ([12]; 20 g/ha): 20%
